Results as given in ChEMBL document CHEMBL1201862, “PubChem BioAssay data set” (2004).
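Growth conditions: 96-well plates. Treatment: test compound, 48 hours, 5 concentrations. Analysis: linear interpolation between bracketing concentrations; unreached endpoints set to highest concentration. Abbreviation: GI50, concentration required for 50% inhibition of growth.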 Activity calls are given as the source filed them. No stated cut-off is given here; in the data, active = GI50 up to about 1.1 µM and inactive = higher.

Tests used:
Assay in all cases: NCI anticancer screen, dose series, 48 h
786-0 = test system: 786-0
ACHN = test system: ACHN
CCRF-CEM = test system: CCRF-CEM
EKVX = test system: EKVX
HCT-116 = test system: HCT-116
HL-60 = test system: HL-60
KM12 = test system: KM12
LOX IMVI = test system: LOX IMVI
M14 = test system: M14
MDA-MB-435 = test system: MDA-MB-435
NCI-H460 = test system: NCI-H460
NCI-H522 = test system: NCI-H522
OVCAR-3 = test system: OVCAR-3
SF-295 = test system: SF-295
SN12C = test system: SN12C
SR = test system: SR
T47D = test system: T47D
TK-10 = test system: TK-10
UACC-257 = test system: UACC-257
UO-31 = test system: UO-31

Measured: GI50

Fc1ccc(NC(=S)SCc2ccc3c(c2)OCO3)cc1F
inactive: 786-0 37.2 µM | ACHN 19.7 µM | CCRF-CEM 23.4 µM | EKVX 11.7 µM | HCT-116 49.3 µM | HL-60 16.7 µM | KM12 25.5 µM | LOX IMVI 15.3 µM | M14 20.4 µM | MDA-MB-435 20.6 µM | NCI-H460 28 µM | NCI-H522 16.8 µM | OVCAR-3 29.2 µM | SF-295 18.4 µM | SN12C 16.3 µM | SR 17.4 µM | T47D 10.8 µM | TK-10 30.1 µM | UACC-257 21.1 µM | UO-31 17 µM

CCC1NC(=O)C1NC(=O)OC (stereo not given)
inactive: 786-0 > 100 µM | ACHN > 100 µM | CCRF-CEM > 100 µM | EKVX > 100 µM | HCT-116 > 100 µM | HL-60 > 100 µM | KM12 > 100 µM | LOX IMVI > 100 µM | M14 > 100 µM | MDA-MB-435 > 100 µM | NCI-H460 > 100 µM | NCI-H522 > 100 µM | OVCAR-3 > 100 µM | SF-295 > 100 µM | SN12C > 100 µM | SR > 100 µM | T47D > 100 µM | TK-10 > 100 µM | UACC-257 > 100 µM | UO-31 > 100 µM

CCN(CC)CCCNc1c2c(Cl)cc(Cl)cc2nc2nc(O)nc(C)c12
inactive: 786-0 18.7 µM | ACHN > 100 µM | CCRF-CEM 34.5 µM | EKVX > 100 µM | HCT-116 17.1 µM | HL-60 57.4 µM | KM12 15.7 µM | LOX IMVI 23.1 µM | M14 26.4 µM | MDA-MB-435 21.3 µM | NCI-H460 20.2 µM | NCI-H522 21.6 µM | OVCAR-3 77.6 µM | SF-295 59.8 µM | SN12C 25.3 µM | SR > 10 µM | T47D > 100 µM | TK-10 > 100 µM | UACC-257 43 µM | UO-31 > 100 µM

O=C1c2ccccc2C(=O)N1CC1(C(=O)O)NCCS1(=O)=O (stereo not given)
inactive: 786-0 > 100 µM | ACHN > 100 µM | CCRF-CEM > 100 µM | EKVX 91.4 µM | HCT-116 > 100 µM | HL-60 > 100 µM | KM12 > 100 µM | LOX IMVI > 100 µM | M14 > 100 µM | MDA-MB-435 > 100 µM | NCI-H460 > 100 µM | NCI-H522 > 100 µM | OVCAR-3 > 100 µM | SF-295 > 100 µM | SN12C > 100 µM | SR > 100 µM | T47D > 100 µM | TK-10 > 100 µM | UACC-257 > 100 µM | UO-31 > 100 µM
